The record followed here is patent publication US9371290B2, “Pyridazinone compounds” (BIOTIE THERAPIES CORPORATION, priority 2011, dated 2016).

Each structure is given as a SMILES string.

Data set [1] concerns the target T1, Recombinant human VAP-1 SSAO (Homo sapiens, UniProt Q16853).
T1 construct: made in house; host or cells: Chinese Hamster Ovary (CHO) cells; clarified NP40 cell lysate used directly
T1 sequence (Q16853 1-763): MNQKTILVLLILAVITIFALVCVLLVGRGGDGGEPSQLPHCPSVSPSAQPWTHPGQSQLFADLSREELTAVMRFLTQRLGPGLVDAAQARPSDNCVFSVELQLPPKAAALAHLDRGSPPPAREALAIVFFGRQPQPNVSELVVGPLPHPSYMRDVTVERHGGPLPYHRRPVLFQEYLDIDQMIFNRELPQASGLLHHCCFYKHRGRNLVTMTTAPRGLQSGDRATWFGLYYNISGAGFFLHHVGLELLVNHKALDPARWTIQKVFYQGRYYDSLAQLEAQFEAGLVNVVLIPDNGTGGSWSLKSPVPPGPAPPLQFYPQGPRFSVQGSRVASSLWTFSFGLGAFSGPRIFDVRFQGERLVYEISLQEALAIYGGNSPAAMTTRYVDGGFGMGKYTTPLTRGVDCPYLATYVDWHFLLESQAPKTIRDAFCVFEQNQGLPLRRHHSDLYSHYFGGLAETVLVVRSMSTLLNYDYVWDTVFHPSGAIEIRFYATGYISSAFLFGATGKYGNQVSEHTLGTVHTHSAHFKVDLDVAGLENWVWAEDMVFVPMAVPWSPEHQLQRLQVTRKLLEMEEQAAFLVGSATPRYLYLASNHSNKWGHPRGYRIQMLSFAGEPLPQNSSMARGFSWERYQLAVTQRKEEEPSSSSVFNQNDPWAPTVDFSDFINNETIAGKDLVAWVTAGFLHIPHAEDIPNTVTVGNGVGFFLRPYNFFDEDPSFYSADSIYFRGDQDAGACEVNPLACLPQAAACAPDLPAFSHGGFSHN
Nature of the data set: In vitro inhibition of VAP-1 SSAO activity (coupled colorimetric method, benzylamine substrate). The format is biochemical. The following applies: CHO cell lysate, 1 mM benzylamine, read-out: VAP-1 SSAO Inhibitory activity IC50. As for the experimental part:
VAP-1 SSAO activity was measured using the coupled colorimetric method essentially as described for monoamine oxidase and related enzymes (Holt, A., et al., Anal. Biochem. 244:384-392 (1997)). Recombinant human VAP-1 SSAO expressed in Chinese Hamster Ovary (CHO) cells was used as a source of VAP-1 SSAO for activity measurements. Native CHO cells have negligible SSAO activity. These cells and their culture have previously been described (Smith, D. J., et al., J. Exp. Med. 188:17-27 (1998)). A cell lysate was prepared by suspending approximately 3.6×10^8 cells in 25 ml lysis buffer (150 mM NaCl, 10 mM Tris-Base pH 7.2, 1.5 mM MgCl2, 1% NP40) and incubating at 4° C. overnight on a rotating table. The lysate was clarified by centrifugation at 18 000 g for 5 min at room temperature and the supernatant used directly in the assay. The VAP-1 SSAO assay was performed in 96 well microtitre plates as follows. To each well was added a predetermined amount of inhibitor if required. The amount of inhibitor varied in each assay but was generally at a final concentration of between 1 nM and 50 μM. Controls lacked inhibitor. The inhibitor was in a total volume of 20 μl in water. The following reagents were then added. 0.2 M potassium phosphate buffer pH 7.6 to a total reaction volume of 200 μl, 50 μl of freshly made chromogenic solution containing 1 mM vanillic acid, 500 μM 4-aminoantipyrine and 8 U/ml horseradish peroxidase and an amount of CHO cell lysate containing VAP-1 SSAO that caused a change of 0.6 A490 per h. This was within the linear response range of the assay. The plates were incubated for 30 min at 37° C. and the background absorbance measured at 490 nm using a Wallac Victor II multilabel counter. To initiate the enzyme reaction 20 μl 10 mM benzylamine (final concentration=1 mM) was added and the plate incubated for 1 h at 37° C. The increase in absorbance, reflecting VAP-1 SSAO activity, was measured at 490 nm. Inhibition was presented as percent inhibition compared to control after correcting for background absorbance and IC50 values calculated using GraphPad Prism.

`CN1CCN(c2cc(=O)n(-c3ccccc3)nc2C(N)=O)CC1.Cl` gave a melting point of 248 to 250 °C.

In turn, `CN(C)CCNC(=O)c1nn(-c2ccccc2)c(=O)cc1Oc1ccccc1.Cl` showed a melting point of 138 to 141 °C.

In turn, `Cn1nccc1-c1nn(-c2ccccc2)c(=O)cc1Oc1ccccc1` [Compound 1] displayed a melting point of 118 to 119 °C.

The compound `O=c1cc(O)c(-c2nc[nH]n2)nn1-c1ccccc1` [Compound 3] came in with a melting point of 218 to 220 °C.

With `COC(=O)c1nn(-c2ccccc2)c(=O)cc1-n1cc(-c2ccccc2)nn1` [Compound 6], the melting point was in the range of 240 to 248 °C.

For the compound `CCOC(=O)c1cn(-c2cc(=O)n(-c3ccccc3)nc2C(=O)OC)nn1` [Compound 7], the melting point lay in the range of 165 to 170 °C.

Consider `N=CNNC(=O)c1nn(-c2ccccc2)c(=O)cc1Sc1ccccc1` [Compound 8, N^2-iminomethyl-6-oxo-4-phenylsulfanyl-1-phenyl-1,6-dihydropyridazin-3-carbohydrazide], for which the melting point fell in the range of 236 to 238 °C.

Compound `O=c1cc(Oc2ccccc2)c(-c2cccnc2)nn1-c1ccccc1` [Compound 9] displayed a melting point of 155 to 157 °C.

Take `CN(C)CCNc1cc(=O)n(-c2ccccc2)nc1-c1nc[nH]n1` [Compound 13]: the melting point is 211 to 214 °C. In addition, the IC50 in data set [1] was 15000 nM.

`O=c1cc(Oc2ccc(Cl)cc2)c(-c2nc[nH]n2)nn1-c1ccccc1` [Compound 15] had a melting point of 235 to 240 °C.

`O=c1cc(Oc2ccccc2)c(-c2ccco2)nn1-c1ccccc1` [Compound 18]: the melting point was in the range of 232 to 234 °C.

On to `Cc1noc(C)c1-c1nn(-c2ccccc2)c(=O)cc1Oc1ccccc1` [Compound 19], for which the melting point was in the range of 122 to 124 °C.

On to `Cc1ccsc1-c1nn(-c2ccccc2)c(=O)cc1Oc1ccccc1` [Compound 20], for which the melting point lay in the range of 212 to 214 °C.

As for `O=c1cc(Oc2ccccc2)c(-c2cccc(C(F)(F)F)c2)nn1-c1ccccc1` [Compound 21, 5-phenoxy-2-phenyl-6-[(3-trifluoromethyl)phenyl]pyridazin-3(2H)-one], the melting point is 146 to 148 °C.

In the case of `CN(C)/C=N/C(=O)c1nn(-c2ccccc2)c(=O)cc1Oc1ccccc1` [Compound 23, N,N-dimethyl-N′-[(6-oxo-4-phenoxy-1-phenyl-1,6-dihydropyridazin-3-yl)carbonyl]formamidine], the melting point is 175 to 176 °C.

The compound `CCCc1cn(-c2cc(=O)n(-c3ccccc3)nc2C(=O)OC)nn1` [Compound 24] displayed a melting point of 146 to 148 °C.

With `COc1ccc(-n2nc(-c3nc[nH]n3)c(Oc3ccccc3)cc2=O)cc1` [Compound 26], the melting point was 284 to 286 °C.

Regarding `O=c1cc(Oc2ccccc2)c(-c2cn[nH]c2)nn1-c1ccccc1` [Compound 30], the melting point was 245 to 247 °C.

`COc1cc(=O)n(-c2ccccc2)nc1-c1nc[nH]n1` [Compound 31] had a melting point of 235 to 240 °C.

For the compound `CCCc1cn(-c2cc(=O)n(-c3ccccc3)nc2C#N)nn1` [Compound 32, 6-oxo-1-phenyl-4-(4-propyl-1H-1,2,3-triazol-1-yl)-1,6-dihydropyridazine-3-carbonitrile], the melting point was in the range of 192 to 195 °C.

`O=c1cc(Oc2ccccc2)c(-c2nc[nH]n2)nn1-c1cccc(C(F)(F)F)c1` [Compound 33] showed a melting point of 257 to 258 °C.

As for `O=c1cc(NCCN2CCOCC2)c(-c2nc[nH]n2)nn1-c1ccccc1` [Compound 39], the melting point lay in the range of 251 to 258 °C. For the same compound, in data set [1], the IC50 came to 2000 nM.

The compound `O=c1cc(Nc2ccccc2)c(-c2nc[nH]n2)nn1-c1ccccc1` [Compound 40] gave a melting point of 287 to 290 °C.

The compound `Cn1cnc(-c2nn(-c3ccccc3)c(=O)cc2Oc2ccccc2)n1` [Compound 41] showed a melting point of 235 to 237 °C.

With `O=c1cc(N2CCCC2)c(-c2nc[nH]n2)nn1-c1ccccc1` [Compound 44], the melting point was in the range of 301 to 303 °C.

Take `O=c1cc(Oc2ccccc2)c(-c2nc[nH]n2)nn1-c1ccccc1F` [Compound 45]: the melting point fell in the range of 265 to 267 °C.

Compound `[N-]=[N+]=Nc1cc(=O)n(-c2ccccc2)nc1C1=NCCN1` [Compound 47, 5-Azido-6-(4,5-dihydro-1H-imidazol-2-yl)-2-phenylpyridazin-3(2H)-one] displayed a melting point of 238 to 240 °C.

The compound `Cc1nc(-c2nn(-c3ccccc3)c(=O)cc2Oc2ccccc2)n[nH]1` [Compound 51, 5-phenoxy-2-phenyl-6-(5-methyl-1H-1,2,4-triazol-3-yl)-3(2H)-pyridazinone] returned a melting point of 245 to 247 °C.

As to `O=c1cc(Nc2ccncc2)c(-c2nc[nH]n2)nn1-c1ccccc1` [Compound 53], the melting point is 342 to 344 °C.

The compound `CC(C)Nc1cc(=O)n(-c2ccccc2)cc1-c1nc[nH]n1` [Compound 54, 4-isopropylamino-1-phenyl-5-(1H-1,2,4-triazol-3-yl)-pyridin-2(1H)-one] showed a melting point of 307 to 310 °C.

`COc1ccc(Nc2cc(=O)n(-c3ccc(Cl)cc3)nc2-c2nc[nH]n2)cc1OC` [Compound 60] came in with a melting point of 227 to 230 °C.

Compound `CN1CCN(c2ccc(Nc3cc(=O)n(-c4ccc(Cl)cc4)nc3-c3nc[nH]n3)cc2)CC1` [Compound 63] had a melting point of 227 to 229 °C. The IC50 in data set [1] was determined as 70 nM.

With `O=c1cc(Nc2ccccc2)c(-c2nc[nH]n2)nn1-c1ccc(Cl)cc1` [Compound 64], the melting point was in the range of 244 to 246 °C.

In the case of `Nc1ccc(Nc2cc(=O)n(-c3ccc(Cl)cc3)nc2-c2nc[nH]n2)cc1` [Compound 66], the melting point lay in the range of 278 to 281 °C.

As to `CN1CCC(Nc2cc(=O)n(-c3ccc(Cl)cc3)nc2-c2nc[nH]n2)CC1` [Compound 67], the melting point was 270 to 272 °C.

`CN1CCC(Nc2cc(=O)n(-c3ccc(Cl)cc3)nc2-c2nc[nH]n2)CC1` [Compound 68]: the melting point is 227 to 230 °C. For the same compound, the IC50 in data set [1] stood at 180 nM.

In turn, `O=c1cc(Nc2ccccc2)c(-c2nc[nH]n2)nn1-c1cccc(F)c1` [Compound 69] gave a melting point of 233 to 235 °C.

In the case of `CN(C)c1ccc(Nc2cc(=O)n(-c3cccc(Cl)c3)nc2-c2nc[nH]n2)cc1` [Compound 72], the melting point lay within 243 to 245 °C.

Compound `NNC(=O)c1nn(-c2ccccc2)c(=O)cc1Oc1ccccc1` [Compound 76] registered a melting point of 80 to 82 °C.

As for `NCCCNc1cc(=O)n(-c2ccc(Cl)cc2)nc1-c1nc[nH]n1` [Compound 78], the melting point was 285 to 290 °C. Also, the IC50 in data set [1] is 800 nM.

Turning to `N#CCNc1cc(=O)n(-c2ccc(Cl)cc2)nc1-c1nc[nH]n1` [Compound 79], the melting point was 303 to 306 °C.

As for `O=c1cc(Nc2ccc(N3CCNCC3)cc2)c(-c2nc[nH]n2)nn1-c1ccc(Cl)cc1` [Compound 80, 2-(4-chlorophenyl)-5-{[4-(4-piperazine-1-yl)phenyl]amino}-6-(1H-1,2,4-triazol-3-yl)-3(2H)-pyridazinone], the melting point lay within 212 to 224 °C.

As to `CN1CCN(c2ccc(Nc3cc(=O)n(-c4ccc(Cl)cc4)cc3-c3nc[nH]n3)cc2)CC1` [Compound 81], the melting point lay within 218 to 221 °C. Besides, the IC50 in data set [1] worked out at 31 nM.

`C#CCN(C)c1cc(=O)n(-c2ccc(Cl)cc2)nc1-c1nc[nH]n1` [Compound 82] returned a melting point of 210 to 212 °C.

Usually melting point stands for the temperature of the solid-liquid transition. For orientation: IC50 means the concentration that inhibits the measured activity by half.
